# Experiment: Dissolution profiles of hydrocortisone (CCN90306A) Accudep Cores (paddles, 75 rpm, distilled water)
# Assay type: physicochemical
# Conditions: 1 mg CCN90306A, vs control core, 75 rpm paddles, n=3, FIG. 7
# Procedure: Accudep™ Cores were made as follows: Control Accudep™ Core: Sealed a 1 mg deposition of CCN90306A between two polymer sheets with the following composition: 45% HPMC, 45% HPC, 10% PEG.
compound,measurement,setting,value
"C[C@]12CCC(=O)C=C1CC[C@@H]1[C@@H]2[C@@H](O)C[C@@]2(C)[C@H]1CC[C@]2(O)C(=O)CO [CCN90306A, Hydrocortisone]",dissolution at 20- and 30-minute sample points,Polysorbate 80 incorporated in film Accudep Core (20%),faster dissolution
same,dissolution at 20- and 30-minute sample points,SLS incorporated in film Accudep Core (20% SLS),faster dissolution

# — patent US20020036154A1, “Solid pharmaceutical dosage formulation of hydrophobic drugs” (priority 2000, published 2002)
